# Experimental data from ChEMBL document CHEMBL4825682, “Discovery of novel purinylthiazolylethanone derivatives as anti-Candida albicans agents through possible multifaceted mechanisms” (Eur J Med Chem, 2021).
# The source made the active and inactive calls. The rule behind the calls is not given here.
# How the values were obtained:
# Candida albicans [1] = test: Antifungal activity against Candida albicans ATCC 90023 assessed as fungal growth inhibition by CLSI protocol based microbroth dilution method; assay type: functional
# [2] = Hemolytic activity in human RBC; assay type: cell-based, Erythrocyte; conditions: human red blood cells (erythrocytes)
# Aspergillus fumigatus = test: Antifungal activity against Aspergillus fumigatus assessed as fungal growth inhibition by CLSI protocol based microbroth dilution method; assay type: functional
# Candida parapsilosis = test: Antifungal activity against Candida parapsilosis ATCC 22019 assessed as fungal growth inhibition by CLSI protocol based microbroth dilution method; assay type: functional; conditions: Lodderomyces parapsilosis
# Candida albicans [3] = test: Antifungal activity against Candida albicans assessed as fungal growth inhibition by CLSI protocol based microbroth dilution method; assay type: functional
# Candida tropicalis [4] = test: Antifungal activity against Candida tropicalis assessed as fungal growth inhibition by CLSI protocol based microbroth dilution method; assay type: functional
# Candida albicans [5] = test: Synergistic antifungal activity against Candida albicans assessed as fractional inhibitory concentration index in presence of fluconazole; assay type: functional
# Cell wall [6] = test: Induction of cell wall damage in Candida tropicalis; assay type: subcellular
# Cell membrane [7] = test: Induction of cell membrane permeabilization in Candida albicans up to 6 times MIC by propidium iodide staining based fluorescence assay; assay type: subcellular
# Candida albicans [8] = test: Induction of reactive nitrogen species generation in Candida albicans assessed as increase in NO level at 6 times MIC by Greiss reagent assay relative to control; assay type: functional
# Cell membrane [9] = test: Induction of cell membrane destruction in Candida albicans assessed as reduction in LDH activity at 4 times MIC relative to control; assay type: subcellular; set-up: scale not given: the % may be the effect or the level left
# Candida albicans [10] = test: Induction of oxidative stress in Candida albicans assessed as increase in ROS generation by […] probe based assay; assay type: functional, organism-based
# Cell membrane [11] = test: Induction of cytoplasmic membrane depolarization in Candida albicans by diSC3(5)-dye based assay; assay type: subcellular
# [12] = Hemolytic activity in human RBC at MIC relative to control; assay type: ADME, cell-based, Erythrocyte; conditions: human red blood cells (erythrocytes), read-out: Activity
# Candida albicans [13] = test: Potentiation of fluconazole-induced antifungal activity against Candida albicans assessed as fluconazole MIC (reference value: […] ug/ml); assay type: functional
# Cell membrane [14] = test: Induction of cell membrane destruction in Candida albicans assessed as reduction in LDH activity at MIC relative to control; assay type: subcellular; set-up: scale not given: the % may be the effect or the level left
# Cell membrane [15] = test: Induction of cell membrane disruption in Candida albicans assessed as increase in protein leakage by Bradford assay; assay type: subcellular
# Cell wall [16] = test: Induction of cell wall damage in Candida albicans; assay type: subcellular
# Cell wall [17] = test: Induction of cell wall damage in Aspergillus fumigatus; assay type: subcellular
# L02 [18] = test: Cytotoxicity against human L02 cells at 100 ug/ml measured after 72 hrs by CCK8 assay; assay type: cell-based; conditions: l02, 72 h, dose 100 µg/ml
# L02 [19] = test: Cytotoxicity against human L02 cells assessed as increase in cell viability measured after 72 hrs by CCK8 assay relative to control; assay type: cell-based; conditions: l02, 72 h
# Candida tropicalis [20] = test: Potentiation of fluconazole-induced antifungal activity against Candida tropicalis assessed as fluconazole MIC (reference value: […] ug/ml); assay type: functional
# [21] = Hemolytic activity in human RBC at 8 times MIC relative to control; assay type: ADME, cell-based, Erythrocyte; conditions: human red blood cells (erythrocytes), read-out: Activity
# Candida albicans [22] = test: Antibiofilm activity against Candida albicans assessed as inhibition of biofilm formation at 0.5 to 5 times MIC by Alamar blue assay; assay type: functional, organism-based
# Candida albicans [23] = test: Antifungal activity against Candida albicans measured after 16 passages; assay type: functional, organism-based
# Candida albicans [24] = test: Induction of oxidative stress in Candida albicans assessed as decrease in cellular GSH level; assay type: functional, organism-based
# Candida albicans [25] = test: Antifungal activity against Candida albicans assessed as reduction in metabolic activity at 0.5 to 6 times MIC by resazurin assay; assay type: functional, organism-based
# Candida tropicalis [26] = test: Additive antifungal activity against Candida tropicalis assessed as fractional inhibitory concentration index in presence of fluconazole; assay type: functional
smiles,measurement,setting,value
CC(C)N(C(=O)CN1CCN(c2ncnc3c2ncn3CC(=O)c2nccs2)CC1)C(C)C,MIC,Candida albicans [1],16 µg/mL
same,HC50,[2],> 256 µg/mL
same,MIC,Aspergillus fumigatus,32 µg/mL
same,MIC,Candida parapsilosis,32 µg/mL
same,MIC,Candida albicans [3],4 µg/mL
same,MIC,Candida tropicalis [4],8 µg/mL
O=C(Cn1cnc2c(N3CCN(Cc4ccccc4Cl)CC3)ncnc21)c1nccs1,MIC,Candida albicans [1],2 µg/mL
same,HC50,[2],> 256 µg/mL
same,MIC,Aspergillus fumigatus,64 µg/mL
same,MIC,Candida parapsilosis,256 µg/mL
same,MIC,Candida albicans [3],256 µg/mL
same,MIC,Candida tropicalis [4],256 µg/mL
CCCCCCCCCCCCN1CCN(c2ncnc3c2ncn3CC(=O)c2nccs2)CC1,MIC,Candida albicans [1],16 µg/mL
same,HC50,[2],> 256 µg/mL
same,MIC,Aspergillus fumigatus,16 µg/mL
same,MIC,Candida parapsilosis,8 µg/mL
same,MIC,Candida albicans [3],4 µg/mL
same,MIC,Candida tropicalis [4],8 µg/mL
O=C(Cn1cnc2c(Cl)ncnc21)c1nccs1,MIC,Candida albicans [1],128 µg/mL
same,HC50,[2],> 256 µg/mL
same,MIC,Aspergillus fumigatus,128 µg/mL
same,MIC,Candida parapsilosis,64 µg/mL
same,MIC,Candida albicans [3],64 µg/mL
same,MIC,Candida tropicalis [4],32 µg/mL
O=C(Cn1cnc2c(N3CCOCC3)ncnc21)c1nccs1,MIC,Candida albicans [1],2 µg/mL
same,HC50,[2],> 256 µg/mL
same,MIC,Aspergillus fumigatus,64 µg/mL
same,MIC,Candida parapsilosis,2 µg/mL
same,MIC,Candida albicans [3],64 µg/mL
same,MIC,Candida tropicalis [4],32 µg/mL
N#CCN1CCN(c2ncnc3c2ncn3CC(=O)c2nccs2)CC1,MIC,Candida albicans [1],256 µg/mL
same,HC50,[2],> 256 µg/mL
same,MIC,Aspergillus fumigatus,16 µg/mL
same,MIC,Candida parapsilosis,8 µg/mL
same,MIC,Candida albicans [3],8 µg/mL
same,MIC,Candida tropicalis [4],4 µg/mL
CCN1CCN(c2ncnc3c2ncn3CC(=O)c2nccs2)CC1,MIC,Candida albicans [1],16 µg/mL
same,HC50,[2],> 256 µg/mL
same,MIC,Aspergillus fumigatus,32 µg/mL
same,MIC,Candida parapsilosis,256 µg/mL
same,MIC,Candida albicans [3],32 µg/mL
same,MIC,Candida tropicalis [4],16 µg/mL
O=C(Cn1cnc2c(N3CCN(CCO)CC3)ncnc21)c1nccs1,MIC,Candida albicans [1],256 µg/mL
same,HC50,[2],> 256 µg/mL
same,MIC,Aspergillus fumigatus,64 µg/mL
same,MIC,Candida parapsilosis,128 µg/mL
same,MIC,Candida albicans [3],1 µg/mL
same,MIC,Candida tropicalis [4],64 µg/mL
C=CCN1CCN(c2ncnc3c2ncn3CC(=O)c2nccs2)CC1,MIC,Candida albicans [1],64 µg/mL
same,HC50,[2],> 256 µg/mL
same,MIC,Aspergillus fumigatus,64 µg/mL
same,MIC,Candida parapsilosis,8 µg/mL
same,MIC,Candida albicans [3],4 µg/mL
same,MIC,Candida tropicalis [4],32 µg/mL
O=C(Cn1cnc2c(N3CCN(Cc4ccc(Cl)cc4)CC3)ncnc21)c1nccs1,MIC,Candida albicans [1],128 µg/mL
same,HC50,[2],> 256 µg/mL
same,MIC,Aspergillus fumigatus,64 µg/mL
same,MIC,Candida parapsilosis,64 µg/mL
same,MIC,Candida albicans [3],32 µg/mL
same,MIC,Candida tropicalis [4],4 µg/mL
CCOC(=O)CN1CCN(c2ncnc3c2ncn3CC(=O)c2nccs2)CC1,fractional inhibitory concentration index (FICI),Candida albicans [5],0.56
same,Activity,Cell wall [6],Active
same,Activity,Cell membrane [7],Active
same,fold change (FC),Candida albicans [8],3.6
same,Activity,Cell membrane [9],50%
same,Activity,Candida albicans [10],Dose-Dependent Effect
same,Activity,Cell membrane [11],Active
same,hemolysis at 1 x MIC,[12],2.6%
same,MIC,Candida albicans [13],0.0625 µg/mL
same,MIC,Candida albicans [1],16 µg/mL
same,Activity,Cell membrane [14],30%
same,Activity,Cell membrane [15],Dose-Dependent Effect
same,HC50,[2],> 256 µg/mL
same,Activity,Cell wall [16],Active
same,Activity,Cell wall [17],inactive
same,MIC,Aspergillus fumigatus,16 µg/mL
same,MIC,Candida parapsilosis,8 µg/mL
same,Activity,L02 [18],Toxic
same,Activity,L02 [19],> 60%
same,MIC,Candida tropicalis [20],8 µg/mL
same,hemolysis at 8 x MIC,[21],3.8%
same,inhibition,Candida albicans [22],Active
same,Activity,Candida albicans [23],Active
same,Activity,Candida albicans [24],Active
same,Activity,Candida albicans [25],Active
same,fractional inhibitory concentration index (FICI),Candida tropicalis [26],1.02
same,MIC,Candida albicans [3],1 µg/mL
same,MIC,Candida tropicalis [4],8 µg/mL
CCCCN1CCN(c2ncnc3c2ncn3CC(=O)c2nccs2)CC1,MIC,Candida albicans [1],64 µg/mL
same,HC50,[2],> 256 µg/mL
same,MIC,Aspergillus fumigatus,256 µg/mL
same,MIC,Candida parapsilosis,64 µg/mL
same,MIC,Candida albicans [3],4 µg/mL
same,MIC,Candida tropicalis [4],128 µg/mL
CCOC(=O)CN1CCN(c2ncnc3c2ncn3C/C(=N/O)c2nccs2)CC1,MIC,Candida albicans [1],16 µg/mL
same,HC50,[2],> 256 µg/mL
same,MIC,Aspergillus fumigatus,16 µg/mL
same,MIC,Candida parapsilosis,64 µg/mL
same,MIC,Candida albicans [3],4 µg/mL
same,MIC,Candida tropicalis [4],64 µg/mL
O=C(Cn1cnc2c(N3CCCC3)ncnc21)c1nccs1,MIC,Candida albicans [1],32 µg/mL
same,HC50,[2],> 256 µg/mL
same,MIC,Aspergillus fumigatus,32 µg/mL
same,MIC,Candida parapsilosis,32 µg/mL
same,MIC,Candida albicans [3],16 µg/mL
same,MIC,Candida tropicalis [4],64 µg/mL
O=C(Cn1cnc2c(N3CCN(CC(=O)N4CCCC4)CC3)ncnc21)c1nccs1,MIC,Candida albicans [1],256 µg/mL
same,HC50,[2],> 256 µg/mL
same,MIC,Aspergillus fumigatus,64 µg/mL
same,MIC,Candida parapsilosis,128 µg/mL
same,MIC,Candida albicans [3],2 µg/mL
same,MIC,Candida tropicalis [4],32 µg/mL
CC(C)(C)OC(=O)N1CCN(C(=O)CN2CCN(c3ncnc4c3ncn4CC(=O)c3nccs3)CC2)CC1,MIC,Candida albicans [1],16 µg/mL
same,HC50,[2],> 256 µg/mL
same,MIC,Aspergillus fumigatus,128 µg/mL
same,MIC,Candida parapsilosis,128 µg/mL
same,MIC,Candida albicans [3],32 µg/mL
same,MIC,Candida tropicalis [4],64 µg/mL
O=C(Cn1cnc2c(N3CCCCC3)ncnc21)c1nccs1,MIC,Candida albicans [1],256 µg/mL
same,HC50,[2],> 256 µg/mL
same,MIC,Aspergillus fumigatus,128 µg/mL
same,MIC,Candida parapsilosis,64 µg/mL
same,MIC,Candida albicans [3],1 µg/mL
same,MIC,Candida tropicalis [4],64 µg/mL
